{
  "source": "patent US20100152434A1",
  "about": "“Protein Kinase-binding Nucleosides and Associated Methods” (priority 2007, published 2010)",
  "key": {"UACC-257 [1]": {"tested_on": "UACC-257"}, "MDA-MB-435 [2]": {"tested_on": "MDA-MB-435", "conditions": "MDA-MB-435 (Melanoma panel)"}, "HOP-92": {"tested_on": "HOP-92", "experiment": "cells", "conditions": "Homo sapiens, HOP-92"}, "NCI-H23": {"tested_on": "NCI-H23", "experiment": "cells", "conditions": "Homo sapiens, NCI-H23"}, "COLO 205": {"tested_on": "COLO 205", "experiment": "cells", "conditions": "Homo sapiens, COLO 205"}, "HCC-2998": {"tested_on": "HCC-2998", "experiment": "cells", "conditions": "Homo sapiens, HCC 2998"}, "KM12": {"tested_on": "KM12", "experiment": "cells", "conditions": "Homo sapiens, KM12"}, "SNB-19": {"tested_on": "SNB-19", "experiment": "cells", "conditions": "Homo sapiens, SNB-19"}, "UACC-257 [3]": {"tested_on": "UACC-257", "experiment": "cells", "conditions": "Homo sapiens, UACC-257"}, "UACC-62": {"tested_on": "UACC-62", "experiment": "cells", "conditions": "Homo sapiens, UACC-62"}, "OVCAR-3": {"tested_on": "OVCAR-3", "experiment": "cells", "conditions": "Homo sapiens, OVCAR-3"}, "OVCAR-5": {"tested_on": "OVCAR-5", "experiment": "cells", "conditions": "Homo sapiens, OVCAR-5"}, "OVCAR-8": {"tested_on": "OVCAR-8", "experiment": "cells", "conditions": "Homo sapiens, OVCAR-8"}, "SK-OV-3": {"tested_on": "SK-OV-3", "experiment": "cells", "conditions": "Homo sapiens, SK-OV-3"}, "ACHN": {"tested_on": "ACHN", "experiment": "cells", "conditions": "Homo sapiens"}, "PC-3": {"tested_on": "PC-3", "experiment": "cells", "conditions": "Homo sapiens, PC-3"}, "MDA-MB-435 [4]": {"tested_on": "MDA-MB-435", "experiment": "cells", "conditions": "Homo sapiens, MDA-MB-435"}, "BT-549": {"tested_on": "BT-549", "experiment": "cells", "conditions": "Homo sapiens, BT-549"}, "[5]": {"conditions": "Log10 Concentration −4.0, Molar"}, "[6]": {"conditions": "Log10 Concentration −5.0, Molar"}, "[7]": {"conditions": "Log10 Concentration −6.0, Molar"}, "[8]": {"conditions": "Log10 Concentration −7.0, Molar"}, "[9]": {"conditions": "Log10 Concentration −8.0, Molar"}},
  "note": "Like-named read-outs stand apart in the source and are kept apart here.",
  "data": [
    {"smiles": "CNC(=O)NC[C@H]1O[C@@H](n2cnc3c(NC(=O)Nc4ccccc4)ncnc32)C(O[Si](C)(C)C(C)(C)C)[C@H]1O[Si](C)(C)C(C)(C)C", "note": "(some centres unmarked) [Compound 25, 2′,3′-Bis-O-(tert-butyldimethylsilyl)-5-deoxy-5′-[(N-methylcarbamoyl)amino]-N^6-(N-phenylcarbamoyl)adenosine]", "values": [
      {"measurement": "TGI", "setting": "CCRF-CEM", "value": ">1.00E−4", "unit": "Molar"},
      {"measurement": "Percent Growth", "setting": "CCRF-CEM; [5]", "value": 4, "unit": "%"},
      {"measurement": "Percent Growth", "setting": "CCRF-CEM; [6]", "value": 9, "unit": "%"},
      {"measurement": "Percent Growth", "setting": "CCRF-CEM; [7]", "value": 101, "unit": "%"},
      {"measurement": "Percent Growth", "setting": "CCRF-CEM; [8]", "value": 109, "unit": "%"},
      {"measurement": "Percent Growth", "setting": "CCRF-CEM; [9]", "value": 104, "unit": "%"},
      {"measurement": "TGI", "setting": "NCI-H460", "value": "3.49E−6", "unit": "Molar"},
      {"measurement": "Percent Growth", "setting": "NCI-H460; [5]", "value": "−75", "unit": "%"},
      {"measurement": "Percent Growth", "setting": "NCI-H460; [6]", "value": "−74", "unit": "%"},
      {"measurement": "Percent Growth", "setting": "NCI-H460; [7]", "value": 88, "unit": "%"},
      {"measurement": "Percent Growth", "setting": "NCI-H460; [8]", "value": 93, "unit": "%"},
      {"measurement": "Percent Growth", "setting": "NCI-H460; [9]", "value": 104, "unit": "%"},
      {"measurement": "TGI", "setting": "HCT-116", "value": "4.31E−6", "unit": "Molar"},
      {"measurement": "Percent Growth", "setting": "HCT-116; [5]", "value": "−100", "unit": "%"},
      {"measurement": "Percent Growth", "setting": "HCT-116; [6]", "value": "−59", "unit": "%"},
      {"measurement": "Percent Growth", "setting": "HCT-116; [7]", "value": 102, "unit": "%"},
      {"measurement": "Percent Growth", "setting": "HCT-116; [8]", "value": 105, "unit": "%"},
      {"measurement": "Percent Growth", "setting": "HCT-116; [9]", "value": 107, "unit": "%"},
      {"measurement": "TGI", "setting": "SF-539", "value": "1.30E−5", "unit": "Molar"},
      {"measurement": "Percent Growth", "setting": "SF-539; [5]", "value": "−51", "unit": "%"},
      {"measurement": "Percent Growth", "setting": "SF-539; [6]", "value": 7, "unit": "%"},
      {"measurement": "Percent Growth", "setting": "SF-539; [7]", "value": 91, "unit": "%"},
      {"measurement": "Percent Growth", "setting": "SF-539; [8]", "value": 100, "unit": "%"},
      {"measurement": "Percent Growth", "setting": "SF-539; [9]", "value": 100, "unit": "%"},
      {"measurement": "TGI", "setting": "U251", "value": "1.08E−5", "unit": "Molar"},
      {"measurement": "Percent Growth", "setting": "U251; [5]", "value": "−46", "unit": "%"},
      {"measurement": "Percent Growth", "setting": "U251; [6]", "value": 2, "unit": "%"},
      {"measurement": "Percent Growth", "setting": "U251; [7]", "value": 93, "unit": "%"},
      {"measurement": "Percent Growth", "setting": "U251; [8]", "value": 102, "unit": "%"},
      {"measurement": "Percent Growth", "setting": "U251; [9]", "value": 102, "unit": "%"},
      {"measurement": "TGI", "setting": "SK-MEL-5", "value": "4.75E−6", "unit": "Molar"},
      {"measurement": "Percent Growth", "setting": "SK-MEL-5; [5]", "value": "−99", "unit": "%"},
      {"measurement": "Percent Growth", "setting": "SK-MEL-5; [6]", "value": "−42", "unit": "%"},
      {"measurement": "Percent Growth", "setting": "SK-MEL-5; [7]", "value": 82, "unit": "%"},
      {"measurement": "Percent Growth", "setting": "SK-MEL-5; [8]", "value": 96, "unit": "%"},
      {"measurement": "Percent Growth", "setting": "SK-MEL-5; [9]", "value": 102, "unit": "%"},
      {"measurement": "TGI", "setting": "UACC-257 [1]", "value": "2.02E−5", "unit": "Molar"},
      {"measurement": "Percent Growth", "setting": "UACC-257 [1]; [5]", "value": "−24", "unit": "%"},
      {"measurement": "Percent Growth", "setting": "UACC-257 [1]; [6]", "value": 11, "unit": "%"},
      {"measurement": "Percent Growth", "setting": "UACC-257 [1]; [7]", "value": 104, "unit": "%"},
      {"measurement": "Percent Growth", "setting": "UACC-257 [1]; [8]", "value": 100, "unit": "%"},
      {"measurement": "Percent Growth", "setting": "UACC-257 [1]; [9]", "value": 97, "unit": "%"},
      {"measurement": "TGI", "setting": "SN12C", "value": "3.38E−6", "unit": "Molar"},
      {"measurement": "Percent Growth", "setting": "SN12C; [5]", "value": "−90", "unit": "%"},
      {"measurement": "Percent Growth", "setting": "SN12C; [6]", "value": "−87", "unit": "%"},
      {"measurement": "Percent Growth", "setting": "SN12C; [7]", "value": 98, "unit": "%"},
      {"measurement": "Percent Growth", "setting": "SN12C; [8]", "value": 100, "unit": "%"},
      {"measurement": "Percent Growth", "setting": "SN12C; [9]", "value": 100, "unit": "%"},
      {"measurement": "TGI", "setting": "MDA-MB-435 [2]", "value": "2.91E−5", "unit": "Molar"},
      {"measurement": "Percent Growth", "setting": "MDA-MB-435 [2]; Log10 Concentration −4.0 Molar", "value": "−10", "unit": "%"},
      {"measurement": "Percent Growth", "setting": "MDA-MB-435 [2]; Log10 Concentration −5.0 Molar", "value": 9, "unit": "%"},
      {"measurement": "Percent Growth", "setting": "MDA-MB-435 [2]; Log10 Concentration −6.0 Molar", "value": 97, "unit": "%"},
      {"measurement": "Percent Growth", "setting": "MDA-MB-435 [2]; Log10 Concentration −7.0 Molar", "value": 102, "unit": "%"},
      {"measurement": "Percent Growth", "setting": "MDA-MB-435 [2]; Log10 Concentration −8.0 Molar", "value": 102, "unit": "%"},
      {"measurement": "GI50", "setting": "HOP-92", "value": 15.5, "unit": "µM"},
      {"measurement": "IC50", "setting": "HOP-92", "value": 97.5, "unit": "µM"},
      {"measurement": "GI50", "setting": "NCI-H23", "value": 3.17, "unit": "µM"},
      {"measurement": "IC50", "setting": "NCI-H23", "value": 85, "unit": "µM"},
      {"measurement": "GI50", "setting": "COLO 205", "value": 1.59, "unit": "µM"},
      {"measurement": "IC50", "setting": "COLO 205", "value": 5.98, "unit": "µM"},
      {"measurement": "GI50", "setting": "HCC-2998", "value": 2.02, "unit": "µM"},
      {"measurement": "IC50", "setting": "HCC-2998", "value": 6.99, "unit": "µM"},
      {"measurement": "GI50", "setting": "KM12", "value": 2.13, "unit": "µM"},
      {"measurement": "IC50", "setting": "KM12", "value": 8.05, "unit": "µM"},
      {"measurement": "GI50", "setting": "SNB-19", "value": 4.57, "unit": "µM"},
      {"measurement": "IC50", "setting": "SNB-19", "value": "> 100", "unit": "µM"},
      {"measurement": "GI50", "setting": "UACC-257 [3]", "value": 3.78, "unit": "µM"},
      {"measurement": "IC50", "setting": "UACC-257 [3]", "value": "> 100", "unit": "µM"},
      {"measurement": "GI50", "setting": "UACC-62", "value": 3.98, "unit": "µM"},
      {"measurement": "IC50", "setting": "UACC-62", "value": "> 100", "unit": "µM"},
      {"measurement": "GI50", "setting": "OVCAR-3", "value": 2.6, "unit": "µM"},
      {"measurement": "IC50", "setting": "OVCAR-3", "value": 98.2, "unit": "µM"},
      {"measurement": "GI50", "setting": "OVCAR-5", "value": 5.24, "unit": "µM"},
      {"measurement": "IC50", "setting": "OVCAR-5", "value": "> 100", "unit": "µM"},
      {"measurement": "GI50", "setting": "OVCAR-8", "value": 4.01, "unit": "µM"},
      {"measurement": "IC50", "setting": "OVCAR-8", "value": "> 100", "unit": "µM"},
      {"measurement": "GI50", "setting": "SK-OV-3", "value": 5.88, "unit": "µM"},
      {"measurement": "IC50", "setting": "SK-OV-3", "value": "> 100", "unit": "µM"},
      {"measurement": "GI50", "setting": "ACHN", "value": 3.83, "unit": "µM"},
      {"measurement": "IC50", "setting": "ACHN", "value": "> 100", "unit": "µM"},
      {"measurement": "GI50", "setting": "PC-3", "value": 2.69, "unit": "µM"},
      {"measurement": "IC50", "setting": "PC-3", "value": "> 100", "unit": "µM"},
      {"measurement": "GI50", "setting": "MDA-MB-435 [4]", "value": 3.41, "unit": "µM"},
      {"measurement": "IC50", "setting": "MDA-MB-435 [4]", "value": "> 100", "unit": "µM"},
      {"measurement": "GI50", "setting": "BT-549", "value": 2.92, "unit": "µM"},
      {"measurement": "IC50", "setting": "BT-549", "value": "> 100", "unit": "µM"}
    ]}
  ]
}
